Measurements reported in patent US20240139149A1, “THERAPEUTIC USES OF UROLITHIN DERIVATIVES” (Vandria SA, priority 2022, published 2024).

How the values were obtained:
APTK-OVA tumors = assay: Adoptive transfer of UA-conditioned OT-1 T cells into Rag1−/− mice; type: in vivo, mouse; details: seven days after transfer into Rag1−/− mice, T cells cultured 48 hours with UA
Procedure: For adoptive cell transfer, purified splenic T cell from OT1 mice were isolated and activated using αCD3/αCD28 stimulation beads for 48 h. After magnetic bead removal, 1×10^6 T of activated T cell were intravenously injected into Rag1−/− recipients. To study survival of transferred T cells, stimulated OT-1 T cells were injected into mice without tumors. Subsequently, after 7 days, spleens were isolated and splenocytes were stained for the CD8+ subsets as described below. To understand antitumor immunity conferred by transferred OT-1 lymphocytes, cells were injected into mice carrying APTK-OVA tumors 10 days after subcutaneous organoid transplantation. Tumor growth was assessed as described above. Mice were kept under regular chow food for the T cell adoptive transfer experiment and sacrificed collectively when maximum tumor diameter extended 1.5 cm.
Tumors were minced and digested with Tumor & Tissue Dissociation Reagent (BD Horizon) for 30 min. The remaining organ pieces were filtered through a 70 µm cell strainer. Cells were then washed with PBS 1% BSA and 2 mM EDTA. Immune cells were enriched on a 30%/40%/75% Percoll gradient after a 1700 rpm 17 min centrifugation. Then, tumor immune filtrates or activated T cells were stained with Fixable Viability Dye-eF780 (65-0865-14; eBioscience), αCD45-FITC (30-F11; 11-0451-85; eBioscience), αCD11b-BV650 (M1/70; 56340; BD) α-CD11c-BV785 (HL3; 563735; BD), aLy6G-BV605 (53-6.7; 563005; BD), aLy6C-AF700 (HK1.4; 128024; Biolegend), aF4/80-PE (BM8; 12-4801-82, eBioscience), aPD-L1-PECy7 (MIH5; 25-5982-80, eBioscience); or with Fixable Viability Dye-eF780 (ebioscience), αCD45-BV786 (30-F11; 564225; BD), αCD4-BUV496 (GK1.5; 564667; BD), αCD8-BV605 (100744; Biolegend), aPD1-APC (J43; 17-9985-82; eBioscience), aTIM-3-PECy7 (RMT3-23; 119715; Biolegend), aCTLA4-PE (UC10-4B9; 106305; Biolegend) and aLag3-BV421 (C9B7W; 125221, Biolegend); or with Fixable Viability Dye-eF780 (eBioscience), αCD4-FITC (H129.19; 553650; BD), αCD8-APC (53-6.7; 17-0081-83; eBioscience), αCD44-AF400 (IM7; 103026; Biolegend), αCD62L-BV785 (MEL-14; 104440; Biolegend), αSca-1-PerCP-Cy5.5 (D7; 45-5981-82; eBioscience), αCD95-PE (Jo2; 554258; BD); or with Fixable Viability Dye-eF780 (eBioscience), αCD8-BV650 (53-6.7; 563234; BD), αCD4-BUV496 (GK1.5; 564667; BD), αCD127-APC (A7R34; 17-1271-82; eBioscience), αCD95-FITC (SA367H8;152605; Biolegend), αCD44-AF400 (IM7; 103026; Biolegend), αCD62L-BV785 (MEL-14; 104440; Biolegend), αSca-1-PerCP-Cy5.5 (D7; 45-5981-82; eBioscience) followed by intracellular staining of aTCF1-PE (S33-966; 564217; BD), or PGC-1α (sc-518025; D-5; santa cruz), or aCyclinD1 (MA5-28534, DCS-6; Invitrogen) with transcription factor buffer set kit (BD Biosciences). To study cytokine expression, tumor immune infiltrates were stimulated ex vivo with 20 ng/mL PMA and […] Ionomycin (Sigma) for 3 h in T cell activation medium with Brefeldin A (Biolegend). For T cell in vitro activation experiments over several days, Brefeldin A was added to the medium for the last 3 hours. Cells were then stained with Fixable Viability Dye-eF780 (eBioscience), αCD8-PeCy7 (53.6-7; 100722; Biolegend), αCD4-AF700 (GK1.5; 100429; Biolegend), and intracellular staining for cytokine assessment was performed with BD Cytofix/Cytoperm (BD) with 20 min fixation and overnight incubation with αGranzyme B-FITC (GB11; 515403; Biolegend), αIFNγ-PerCPCy5.5 (XMG1.2; 45-7311-82; eBioscience) and αTNFa-BV711 (MP6-XT22; 563944; BD). For flow cytometric analysis of mitochondria and lysosomes 500 μl of Mitotracker Red (200 nM; ThermoFisher) or Lysotracker Red DND-99 (75 nM; ThermoFisher) were applied followed by surface staining. To study changes in mitochondrial membrane potential, Mitoprobe TMRM kit (ThermoFisher) was used according to the manufacturer's instructions. Cell proliferation was assessed by CellTrace Violet (Invitrogen, C34557) at a concentration of […] according to manufacturer's instructions. […]

human T lymphocytes = assay: Proportion of human T memory stem cells (Tscm); type: cell-based
From the text: Human peripheral blood mononuclear cells were purified with a Ficoll-Paque (GE healthcare) gradient. T cells were enriched with EasySep Human T Cell Isolation Kit (StemCell) and activated with dynabead Human T-Activator CD3/CD28 for T Cell Expansion and Activation Kit (11131D; ThermoFisher Scientific). Cells were activated with compound 66 at the indicated concentration or DMSO. Tscm cells are identified and counted based on the expression of five different markers: CD45RA^+CCR7^HiCD62L^+CD95^+CD8^+.
Human peripheral blood mononuclear cells were purified with a Ficoll-Paque (GE healthcare) gradient. T cells were enriched with EasySep Human T Cell Isolation Kit (StemCell) and activated with dynabead Human T-Activator CD3/CD28 for T Cell Expansion and Activation Kit (11131D; ThermoFisher Scientific). Cells were activated with the 77 at 400 nM or DMSO.
Staining was performed as described in Example 15.
(§1) Flow cytometry and analysis was performed as described in Example 14.

mouse T lymphocytes [1] = assay: Mitochondrial content (Mitotracker positive cells) in mouse T lymphocytes; type: cell-based; details: 2 μM, 72 h; for percentage of Mitotracker positive cells: DMSO 44%
Procedure: Splenic murine T cells were isolated from mice aged 6-20 weeks by negative selection with EasySep mouse T cell isolation kit (Stem cell) according to the manufacturer's instructions. T cell activation was initiated using CD3/CD28 activation beads (11456D; ThermoFisher Scientific) at a ratio of 25 μl dynabeads per 0.5×10^6 T-cells. Cells were activated with test compounds at 2 μM or DMSO in T cell activation Medium (RPMI (ThermoFisher Scientific) 10% FBS (South America origin), 10 mM Hepes (Sigma), 1× Non-Essential Amino Acid, 1 mM Sodium Pyruvate, 50 μM β-Mercaptoethanol, 100 U/ml penicillin, 100 μg/ml streptomycin and 2 mM Glutamax (ThermoFisher Scientific) for 72 h. For subsequent analysis, activating beads were magnetically removed prior staining.
For flow cytometric analysis of mitochondria 500 μl of Mitotracker Red (200 nM; ThermoFisher) was applied followed by surface staining.
Cell doublets and cells debris were excluded from the analysis by gating FSC-A vs FSC-H followed by SSC-A vs SSC-H dot plots and FSC-A vs SSC-A dot plots, respectively. eFluor 780 highly positive cells, i.e, dead cells, were gated out of the analysis. Data was acquired on Canto II (BD), Fortessa (BD) and Aurora (Cytek) cytometers and analyzed with FlowJo.

mouse T lymphocytes [2] = assay: Proportion of mouse T memory stem cells (Tscm); type: cell-based; details: 2 μM, 72 h
Procedure: T cells were isolated and stimulated as described in Example 14.
Tscm represent a subset of minimally differentiated T cells, which share a CD44^loCD62L^hi phenotype with naïve T cells, but are phenotypically distinct by expressing high levels of Sca1 (Gattinoni et al., 2009). Tscm are therefore identified as CD44^−CD62L^+Sca1^hi cells.
as §1

[3] = tested on: rat model of heart failure; assay: Rat model of heart failure after myocardial infarction (LAD ligation), echocardiography; type: in vivo
From the text: Generation of a rat model of cardiac impairment following myocardial infarction Fifty (50) Wistar male rats from Janvier Labs (France), 6-week-old (200-224 g on the day of arrival), were included in this study. Acclimatization of animals lasted at least 5 days. During the study, animals had free access to food and drinking water ad libitum.
Myocardial infarction (MI) was induced by chronic left anterior descending coronary artery (LAD) ligation performed at DO. Rats were anesthetized with an intraperitoneal (IP) injection of Medetomidine (0.5 mg/kg) and Ketamine (50 mg/kg), intubated and ventilated at 10 mL/kg tidal volume and 70-80 cycles/min. Body temperature was maintained between 36.5° C. and 37.5° C. via a thermoregulated heating pad connected to a rectal probe. A left lateral thoracotomy was carefully performed so as to expose the heart. Then, a suture was placed around the LAD (4/0 Silk, Ethicon), around 2 mm below the left atrium and close to the interventricular junction, in order to obtain infarct size (IS) near 40% of the total left ventricular (LV) area. Chest was closed, air was expelled from the rib cage to avoid pneumothorax and quick reanimation was performed using atipamezole hydrochloride (IM, 0.5 mg/mL, Zoetis). A peri-operative care of the animals was performed during the surgery: • Pre-operative care by one carprofen injection (SC, 5 mg/kg, Pfizer) and one lidocaine injection on the site of incision (SC, 4 mg/kg, Vetoquinol). • Post-operative care: 3 injections of buprenorphine (SC, 0.01 mg/kg, Axience) administered after awakening and during the first 24 hours after the surgery.
Rats underwent transthoracic echocardiographic examination in order to assess cardiac morphology and function in a noninvasively way. […]
Left ventricle (LV) function was assessed using ejection fraction (EF), calculated as follow: […]
Statistical analysis was performed with the Graphpad 6 software. […] First, differences were assessed between Sham/Vehicle and MI/Vehicle using an unpaired ttest followed by the appropriate post-hoc test. […]

[4] = MI rats, 0.5 mg/kg oral gavage, Month 2, M-mode, vs MI/Vehicle

SMILES	number of engrafted CD8+ T cells (APTK-OVA tumors)	Tscm proportion of CD3+ lymphocytes (human T lymphocytes; indicated concentration vs DMSO)	increase in the percentage of Mitotracker positive cells vs DMSO (mouse T lymphocytes [1])	percentage of Mitotracker positive cells (mouse T lymphocytes [1])	increase in the percentage of Tscm in CD8+ cells vs DMSO (mouse T lymphocytes [2])	percentage of Tscm in CD8+ cells (mouse T lymphocytes [2]; DMSO 16.7%)	LV systolic dysfunction induced by MI ([3]; 0.5 mg/kg, 2 months after LAD ligation)	ejection fraction (EF) [3, 4]	fractional shortening (FS) [3, 4]	increase in Tscm proportion of CD8+ lymphocytes (human T lymphocytes; 400 nM, 72 h, vs DMSO)
O=c1oc2cc(O)ccc2c2ccc(O)cc12 [Urolithin A]	significantly higher									
O=C1OCc2cc(O)ccc2-c2ccc(O)cc21 [compound 66, 3,9-dihydroxydibenzo[c,e]oxepin-5(7H)-one]		significant increase	27.5%	56.1%	69%	28.2%	able to prevent	significant increases	significant increases	
CN1C(=O)Cc2cc(O)ccc2-c2ccc(O)cc21 [compound 77, 3,9-dihydroxy-5-methyl-5,7-dihydro-6H-dibenzo[b,d]azepin-6-one]			43.4%	63.1%						~3 fold
